Data published in patent US11603387B2, “SOCS mimetics for the treatment of diseases” (UNIVERSITY OF FLORIDA RESEARCH FOUNDATION, INC., priority 2014, dated 2023).

Columns and labels:
[1] = target: JAK2 (Homo sapiens, UniProt O60674); test: Binding to the activation loop of JAK2
[2] = tested on: SOCS1−/− mice; test: Lethal perinatal auto-inflammatory disease in SOCS1−/− mice; format: in vivo, mouse; details: peptide combined with CD4 T cells
Text: FIGS. 15A-15F. SOCS1-KIR inhibition of lethal inflammatory pathology in SOCS1−/− mice is correlated to enhanced regulatory T cell homeostasis. (FIG. 15A) Kaplan Meier curve showing survival of SOCS1^−/− (black square; n=7) or CD4^+/SOCS1-KIR treatment (purple triangles, n=12). Numbers of mice in each group are indicated in parentheses. Mice were euthanized when moribund with survival comparisons by Mantel-Cox. Statistical significance denoted by asterisks. (FIG. 15B) Photographs of H & E stains depicting heart and liver tissues of 2 week old SOCS1^−/−, SOCS1^−/− mice receiving dual treatments, or littermate control mice. Photographs shown of H & E stained liver and heart of untreated SOCS1^−/− (N=8) and WT (N=7) mice are representative of 100% of samples analyzed. Photographs shown of H & E stained liver and heart of SOCS1^−/− mice receiving combined treatments are representative of 2 out of 5 mice in regard to heart samples and 1 out of 5 mice in regards to liver tissue. (FIG. 15C) Graph showing average daily weights of SOCS1^−/− mice untreated (n=16), CD4^+/SOCS1-KIR treatment (n=12), or WT littermate controls (n=9) over a two week period. (FIG. 15D) Photographs of 2 week old SOCS1^−/− mice, SOCS1^−/− mice receiving dual treatment, and WT littermate controls. (FIG. 15E) Graphs showing IFNg levels within the sera of 2 week old WT (n=7) or SOCS1^−/− mice with (n=8) and without (n=10) CD4^+/SOCS1-KIR treatment, measured by ELISA. (FIG. 15F) Graphs showing absolute numbers of CD4^+Foxp3^+ lymphocytes present in two week old SOCS1^−/− and WT littermate control mice with or without CD4^+/SOCS1-KIR treatment and WT 6-8 week old adult mice. Each dot is representative of an individual mouse with averages denoted by lines. Statistics were performed using unpaired, two-tailed t test comparing treated SOCS1^−/− to untreated SOCS1^−/− 2 wk. Statistical significance is denoted by asterisks. *, p≤0.05; **, p 0≤0.005; ***, p≤0.0005.

[3] = tested on: EAE; details: administered in vivo; cited from earlier work
[4] = tested on: SOCS1+/+ or SOCS1+/− CD4+CD25− T cells; test: CD4+ T cell activation (CD25 expressing cells, flow cytometry) after αCD3 stimulation; format: cell-based, mouse; details: αCD3 + SOCS1-KIR peptide (20 μM), 72 h
Description: FIGS. 5A-5D. […] (FIGS. 5A and 5B) SOCS1^+/+ or SOCS1^+/− CD4^+CD25^− T cells were stimulated with αCD3 antibodies alone or with αCD3+SOCS1-KIR peptide (20 μM) for 72 h. (FIG. 5A) CD25 expressing cells were assessed by flow cytometry. Results are representative of 4 independent experiments. (FIG. 5B) Proliferation was assessed by CFSE labeling and flow cytometry, cell counts, and ^3[H] thymidine incorporation. n=4. (FIGS. 5C and 5D) SOCS1^+/+ or SOCS1^+/− CD4^+CD25^− T cells were placed under Th17 inducing conditions in the absence or presence of SOCS1-KIR peptide (20 μM) (FIG. 5C) IFNγ expression, relative to β-actin., was assessed by qPCR (left) and ELISA (right) (n=4). (FIG. 5D) pSTAT1 and STAT1 protein expressions were assessed by western blotting. […]
CD4^+ T cell proliferation was assessed by CFSE staining, ^3H thymidine incorporation, and absolute cell counts. […] After 72 h of incubation, cell cultures were either pulsed with 0.5 mCi ^3H thymidine (GE Healthcare; Arlington Heights, Ill.) or counted and harvested for assessment by flow cytometry. In cultures analyzed by flow cytometry, T lymphocytes were labeled with 10 μg/ml CFSE prior to culture as previously described (Cozzo et al. 2003). ^3H thymidine pulsed T lymphocytes were harvested 16-18 hours after initial pulse followed by the ^3H thymidine incorporation assessment using a Beckman LS3801 Liquid Scintillation System. […]

Chain of JAK2 (O60674 whole entry, species assumed): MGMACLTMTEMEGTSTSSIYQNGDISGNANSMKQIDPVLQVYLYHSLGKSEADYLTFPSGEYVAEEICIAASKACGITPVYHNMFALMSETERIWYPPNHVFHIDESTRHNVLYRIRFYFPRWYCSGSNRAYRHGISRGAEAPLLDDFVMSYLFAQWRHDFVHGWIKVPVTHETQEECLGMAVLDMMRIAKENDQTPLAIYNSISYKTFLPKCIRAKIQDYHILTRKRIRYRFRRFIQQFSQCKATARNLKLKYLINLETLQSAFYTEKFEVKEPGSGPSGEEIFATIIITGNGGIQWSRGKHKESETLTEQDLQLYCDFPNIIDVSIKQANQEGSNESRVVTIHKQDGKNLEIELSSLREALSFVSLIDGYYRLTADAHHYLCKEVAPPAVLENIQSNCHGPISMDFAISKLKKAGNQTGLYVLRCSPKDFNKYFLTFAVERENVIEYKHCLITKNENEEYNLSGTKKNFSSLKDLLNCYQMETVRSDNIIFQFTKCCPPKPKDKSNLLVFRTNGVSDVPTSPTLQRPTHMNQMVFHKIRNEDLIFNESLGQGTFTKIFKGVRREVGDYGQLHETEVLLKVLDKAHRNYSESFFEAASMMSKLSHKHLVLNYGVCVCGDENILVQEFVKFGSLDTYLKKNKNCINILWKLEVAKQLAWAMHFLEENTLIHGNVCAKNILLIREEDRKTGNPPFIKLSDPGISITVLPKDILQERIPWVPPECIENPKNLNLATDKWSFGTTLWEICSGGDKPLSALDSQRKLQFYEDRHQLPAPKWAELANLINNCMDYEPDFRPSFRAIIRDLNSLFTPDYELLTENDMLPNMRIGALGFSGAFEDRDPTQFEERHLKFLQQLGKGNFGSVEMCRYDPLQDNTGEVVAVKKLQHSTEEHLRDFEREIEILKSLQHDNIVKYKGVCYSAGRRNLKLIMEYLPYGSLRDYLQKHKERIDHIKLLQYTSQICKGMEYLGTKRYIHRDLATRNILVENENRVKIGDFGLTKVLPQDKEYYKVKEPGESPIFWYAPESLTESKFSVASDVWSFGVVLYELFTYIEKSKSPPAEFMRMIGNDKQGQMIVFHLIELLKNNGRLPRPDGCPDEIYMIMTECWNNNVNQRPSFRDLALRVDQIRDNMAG

DTHFRTFRSHSDYRRI (SOCS1-KIR peptide) [SOCS1 mimetic peptide corresponding to the KIR region of SOCS1]
Binding to and inhibition of JAK2 [1]: binds to and inhibits the function of JAK2
Peripheral Foxp3+CD4+ Tregs ([2]; 2 week old SOCS1−/− mice): enhanced peripheral homeostasis of Foxp3+CD4+ Tregs
Leukocytic infiltration into heart and liver ([2]; SOCS1−/− mice): prevent/delay leukocytic infiltration into heart and liver
Quality of life (size and overall health) ([2]; SOCS1−/− mice): improve the quality of life (size and overall health improvement)
Survival ([2]; SOCS1−/− mice): could extend the life
Immune homeostasis and EAE prevention [3]: could both regulate immune homeostasis and prevent EAE
αCD3 mediated CD25 up-regulation ([4]; SOCS1+/− CD4+ T lymphocytes): sufficient to inhibit excessive αCD3 mediated CD25 up-regulation
CD25 expression ([4]; WT (SOCS1+/+) CD4+ T lymphocytes): limited effects on CD25 expression
